For assay [1], the target named is T1, Mu-type opioid receptor (Cavia porcellus, UniProt P97266). The assay can be described thus: Inhibition of [35S]GTP-gamma-S, binding from Opioid receptor mu 1 in Guinea pig Caudate stimulated by DAMGO. The assay is classed as functional. (In general: Binding of GTPγS marks nucleotide exchange on a G protein.)
Assay [2] has as its target T1, Mu-type opioid receptor. The assay can be described thus: Binding affinity determined on Opioid receptor mu 1 in Guinea pig brain membranes using radioligand [3H]DAMGO. The assay is classed as cell membranes, Membrane.
In assay [3] the target is T2, Kappa-type opioid receptor (Cavia porcellus, UniProt P41144). The assay can be described thus: Binding affinity determined on Opioid receptor kappa 1 in Guinea pig brain membranes using radioligand [3H]U-69593. The assay is classed as cell membranes, Membrane.
Assay [4] has as its target T2, Kappa-type opioid receptor. The assay can be described thus: Inhibition of [35S]GTP-gamma-S, binding from Opioid receptor kappa 1 in Guinea pig Caudate stimulated by U69,593. The assay is classed as functional.
Assay [5] concerns the target Kappa-type opioid receptor (Cavia porcellus) (UniProt P41144). The assay can be described thus: Inhibition against Opioid receptor kappa 1 using selective ligand [3H]U-69593. Also noted: concentration or dose not given beside the values. Conditions: concentration not given here.
Assay [6] deals with T1, Mu-type opioid receptor. Nature of the assay: Binding affinity determined on Opioid receptor mu 1 in Guinea pig brain membranes using radioligand [3H]DAMGO. The assay is classed as cell membranes, Membrane.

Kappa-type opioid receptor (Cavia porcellus), sequence (P41144 whole entry): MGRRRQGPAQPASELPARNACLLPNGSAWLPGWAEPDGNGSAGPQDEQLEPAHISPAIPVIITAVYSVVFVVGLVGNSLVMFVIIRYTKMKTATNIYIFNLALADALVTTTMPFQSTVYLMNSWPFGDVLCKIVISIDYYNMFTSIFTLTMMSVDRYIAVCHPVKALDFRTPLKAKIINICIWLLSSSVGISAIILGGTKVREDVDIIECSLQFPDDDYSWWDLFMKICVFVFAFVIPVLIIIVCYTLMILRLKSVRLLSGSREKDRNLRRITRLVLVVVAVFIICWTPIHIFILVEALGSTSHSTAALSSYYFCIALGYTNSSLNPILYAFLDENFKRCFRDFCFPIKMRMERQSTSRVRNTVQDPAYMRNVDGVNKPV
T2 sequence (P41144 whole entry): as above
T1 sequence (P97266 whole entry): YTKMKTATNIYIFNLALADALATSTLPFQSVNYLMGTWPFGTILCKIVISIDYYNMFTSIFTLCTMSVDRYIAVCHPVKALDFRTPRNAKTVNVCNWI

Regarding `C[C@@H]1CN(C/C=C/c2ccccc2)CC[C@]1(C)c1cccc(O)c1`, the Ki (as a rule, the equilibrium dissociation constant of an inhibitor or competing ligand from its target) came out at 0.039 nM on Mu-type opioid receptor [1], 0.74 nM on Mu-type opioid receptor [2], 122 nM in assay [3] and 1.04 nM in assay [4]. As for `CC(C)C(CN1CCC(C)(c2cccc(O)c2)C(C)C1)NC(=O)CCc1ccc(F)cc1` (configuration not stated), in assay [5], the inhibition (as a rule, the share of the control response that was lost under treatment) is 26%. As to `CC1CN(CC(c2ccccc2)N(C)C(=O)CCc2ccc(O)cc2)CCC1(C)c1cccc(O)c1` (configuration not stated), the inhibition in assay [5] is 7%. On to `CC1CN(CCN(C)C(=O)CCc2ccc(O)cc2)CCC1(C)c1cccc(O)c1` (configuration not stated), for which, in assay [5], the inhibition is 0%.

With `CC1CN(CCNC(=O)CCc2ccc(O)cc2)CCC1(C)c1cccc(O)c1` (configuration not stated), the inhibition in assay [5] amounted to 11%.

Take `CC(C)[C@H](CN1CC[C@@](C)(c2cccc(O)c2)[C@@H](C)C1)NC(=O)CCc1ccc(O)cc1`: the inhibition in assay [5] was found to be 11%.

For `COc1ccc(CCC(=O)NC(CN2CCC(C)(c3cccc(O)c3)C(C)C2)C(C)C)cc1` (configuration not stated), the inhibition in assay [5] came out at 16%. Take `CC1CN(C[C@H](Cc2ccccc2)NC(=O)CCc2ccc(O)cc2)CCC1(C)c1cccc(O)c1` (some centres not stated): at Mu-type opioid receptor [6], the Ki is 9.6 nM. In turn, `CC(C)C(CN1CCC(C)(c2cccc(O)c2)C(C)C1)NC(=O)Cc1ccc(O)cc1` (configuration not stated) yielded an inhibition in assay [5] of 6%. Same read-out and setting: for `CC(C)C(CN1CCC(C)(c2cccc(O)c2)C(C)C1)NC(=O)/C=C/c1ccc(O)cc1` (configuration not stated) the value was 15%. `CC(C)C[C@@H](CN1CCC(C)(c2cccc(O)c2)C(C)C1)NC(=O)CCc1ccc(O)cc1` (some centres not stated) registered a Ki on Mu-type opioid receptor [2] of 398 nM. Regarding `CCC(C)[C@@H](CN1CCC(C)(c2cccc(O)c2)C(C)C1)NC(=O)CCc1ccc(O)cc1` (some centres not stated), the inhibitory constant (Ki) came out at 8.84 nM in assay [3] and 421 nM at Mu-type opioid receptor [6]. The compound `CC(CN1CCC(C)(c2cccc(O)c2)C(C)C1)N(C)C(=O)CCc1ccc(O)cc1` (configuration not stated) showed an inhibition in assay [5] of 1%. Still for that read-out and setting: for `CC(C)C(CN1CCC(C)(c2cccc(O)c2)C(C)C1)NC(=O)CCc1ccccc1O` (configuration not stated) the value was 25%. On to `CC(C)[C@@H](CN1CC[C@@](C)(c2cccc(O)c2)[C@@H](C)C1)NC(=O)CCc1ccccc1`, for which the inhibition in assay [5] is 28%.

As for `CC(C)[C@@H](CN1CC[C@@](C)(c2cccc(O)c2)[C@@H](C)C1)NC(=O)CCc1ccc(O)cc1`, the inhibitory constant (Ki) at Mu-type opioid receptor [1] was determined as 7.25 nM; at Mu-type opioid receptor [2] it was 393 nM; in assay [3], 6.91 nM; in assay [4], 4.7 nM. Also, in assay [5], the inhibition is 71%. The compound `COc1cc(CCC(=O)NC(CN2CCC(C)(c3cccc(O)c3)C(C)C2)C(C)C)ccc1O` (configuration not stated) came in with an inhibition in assay [5] of 42%. The same measure, in the same setting: in the case of `C[S+](C)[O-]` it was 4%; in that of `CC(C)C(CN1CCC(C)(c2cccc(O)c2)C(C)C1)NC(=O)CCc1ccc(O)c(O)c1` (configuration not stated), 31%. Take `CC(CN1CCC(C)(c2cccc(O)c2)C(C)C1)NC(=O)CCc1ccc(O)cc1` (configuration not stated): the inhibition in assay [5] worked out at 20%. With `Oc1ccc2c3c1O[C@H]1c4[nH]c5c(c4C[C@@]4(O)[C@@H](C2)N(CC2CC2)CC[C@]314)C[C@@]1(O)[C@H]2Cc3ccc(O)c4c3[C@@]1(CCN2CC1CC1)[C@H]5O4` [NORBINALTORPHIMINE], at Mu-type opioid receptor [1], affinity was put at a Ki of 16.7 nM. The compound `CC(C)C(CN1CCC(C)(c2cccc(O)c2)C(C)C1)NC(=O)CCc1cccc(O)c1` (configuration not stated) displayed an inhibition in assay [5] of 20%. As to `CC1CN(C[C@@H](NC(=O)CCc2ccc(O)cc2)C2CCCCC2)CCC1(C)c1cccc(O)c1` (some centres not stated), the Ki in assay [3] came out at 83.1 nM; on Mu-type opioid receptor [6] it was 234 nM.

(Values after ChEMBL document CHEMBL1131434, “Identification of an opioid kappa receptor subtype-selective N-substituent for (+)-(3R,4R)-dimethyl-4-(3-hydroxyphenyl)piperidine” (J Med Chem, 1998).)
